Values after ≈ are worked out from the molar mass of the structure shown. Where two headings read alike, the source gives them in different places. Where no end group is shown, it is not given here.
Legend:
[1] = test system: human vascular endothelial cells and fibroblast cells; assay type: cell-based; conditions: polypeptide 10 μg/mL, Day 11 of culture
Procedure: Using AG30-5C as a positive control, the angiogenesis-inducing activity of SR-1 and SR-2 was measured. More concretely, using an angiogenesis kit (Angiogenesis Kit, KZ-1000, KURABO […] LTD.), the ability of the polypeptides to form lumina was evaluated. As a negative control, polypeptide-free group (Control) was used.
Each polypeptide was added to a special medium for angiogenesis (KURABO […] LTD., KZ-1500) such that the concentration thereof was 10 μg/mL. Cells were cultured at 37° C. under 5% CO2 in a 24-well plate using the special media to which the polypeptide was added. The medium was replaced with a medium containing the same polypeptide on Day 4, Day 7 and Day 9 of culture. On Day 11 from the beginning of the culture, the medium was removed and staining was performed using a kit for staining lumina (for CD31 antibody staining) according to the following procedure.
The primary antibody (mouse anti-human CD31 antibody) was 4000-fold diluted with a blocking solution (Dulbecco's phosphate buffered saline (PBS(−)) containing 1% BSA). To each well, 0.5 mL of this primary antibody solution was added, and the plate was incubated for 60 minutes at 37° C. After the completion of the incubation, each well was washed totally 3 times with 1 mL of the blocking solution.
Then, 0.5 mL of a secondary antibody solution (goat anti-mouse IgG/alkaline phosphatase conjugate) 500-fold diluted with the blocking solution was added to each well. The plate was incubated for 60 minutes at 37° C., and thereafter each well was washed 3 times with 1 mL of distilled water. During that period, 2 tablets of BCIP/NBT were dissolved into distilled water, and the obtained solution was filtered through a filter having a pore size of 0.2 μm to prepare a substrate solution. To each well, 0.5 mL of the prepared BCIP/NBT substrate solution was added, and the plate was incubated at 37° C. until the lumina turned to deep purple (typically for 5-10 minutes). After the completion of the incubation, each well was washed 3 times with 1 mL of distilled water. After washing, the washing solution was removed by aspiration, and the plate was left to stand and dry naturally. After drying, photographs of each well were taken under a microscope.
Each of the obtained images was quantified using an angiogenesis quantification software. Computer analysis was carried out on various parameters. And, on the basis of its scale, the lengths of formed lumina observed in each visual field were measured, and the effect of adding the polypeptides compared with Control was evaluated.

[2] = test system: Pseudomonas aeruginosa (clinical strain 6); assay: MIC measurement, broth microdilution; assay type: cell-based; conditions: Pseudomonas aeruginosa; 37° C. for 20 hours; tested twice, first/second value where not matched
[3] = test system: Enterobacter aerogenes JCM 1235; assay: Antibacterial activity, ATP assay (BacTiter-Glo); assay type: cell-based
Procedure: (§1) The antibacterial activity of each of SR-08 and SR-07 polypeptides was measured using an ATP assay method. That is, using BacTiter-Glo Microbial Cell Viability Assay kit available from PROMEGA, the antibacterial activity of the peptides was evaluated from the viability of bacteria. In other words, ATP amount in viable bacteria in cases where the concentration of the peptides was 10 μg/mL was measured using a microtiter plate or test tubes. As controls, tobramycin (TOB), oxacillin (OX) and meropenem (MEPM) were used at the concentrations as respectively shown in Table 6 below.
(§2) With respect to the strains, Escherichia coli: ATCC 25922 (Escherichia coli ATCC 25922), Pseudomonas aeruginosa: ATCC 27853 (Pseudomonas aeruginosa ATCC 27853), Staphylococcus aureus: ATCC29213 (Staphylococcus aureus ATCC29213), Klebsiella pneumoniae: JCM 1662 (Klebsiella pneumoniae JCM 1662), enterobacteria (1): JCM 1232 (Enterobacter cloacae JCM 1232), and enterobacteria (2): JCM 1235 (Enterobacter aerogenes JCM 1235), were used.
(§3) The bacteria were cultured in media for 3 to 4 hours, and thereafter absorbances at A600 were measured. Bacterial suspensions were diluted with Mueller-Hinton broth (MHB) according to McFarland #0.5. Each strain was added so as to attain about 0.5-1×10^5 CFU/mL (final concentration) in terms of Escherichia coli. Each peptide was prepared and added to a microplate or test tubes so as to attain a final concentration of 10 μg/mL, and the bacterial suspension was added thereto. The plate was incubated at 37° C. for 3 hours, and the amount of ATP in the culture media was measured. Relative values were calculated by comparison with the negative control, and these values were regarded as the viability.

[4] = test system: Pseudomonas aeruginosa (clinical strain 12); assay: MIC measurement, broth microdilution; assay type: cell-based; conditions: Pseudomonas aeruginosa; 37° C. for 20 hours; tested twice, first/second value where not matched
MSSA (clinical strain 1) = assay: microbe, parasite or virus in culture; assay type: cell-based, Staphylococcus aureus; conditions: Staphylococcus aureus, MSSA; 37° C. for 20 hours; tested twice, first/second value where not matched
Procedure: (§4) Further, with respect to not only the above-described strains but also various other strains, the “minimum inhibitory concentration (MIC)” was measured as follows. MIC is the lowest concentration of an agent that may inhibit the growth of a bacterium. MIC is used as a parameter for the efficacy of an antibacterial agent, for the strength of bacterial sensitivity, or the like. The bacteria can grow (proliferate) when the concentration is not higher than MIC, and cannot grow when the concentration is higher than MIC. Its measurement is carried out according to a method defined as a standard method by Japanese Society of Chemotherapy or CLINICAL AND LABORATORY […] (CLSI), but, in this Example, its measurement was carried out by a broth microdilution method in accordance with “M100-S17/M7-A7” (Performance Standards for Antimicrobial Susceptibility Testing; Seventeenth Informational Supplement, Vol. 27 No. 1) published by CLSI on January, 2007. That is, sensitivity test of agents was carried out using a microtiter plate or test tubes.
(§5) The bacteria were cultured in liquid media for 4 to 6 hours, and thereafter absorbances at A600 were measured. Bacterial suspensions were diluted with Mueller-Hinton broth (MHB) according to McFarland #0.5. Each strain was added so as to attain about 10^5 CFU/ml (final concentration). Each peptide was prepared to an optional concentration, and the solutions were serially diluted from the concentration. The polypeptide at each concentration stage was added to a microplate or test tubes, and the bacterial suspension was added thereto. Chloramphenicol, amphotericin B, ciprofloxacin, meropenem (MEPM), ciprofloxacin (CPFX), tobramycin (TOB) and oxacillin (OX) were used as positive controls. The plate was incubated at 37° C. for 20 hours, and the lowest concentration where bacterial growth was inhibited was regarded as the minimum inhibitory concentration.

MSSA (clinical strain 2) = assay: microbe, parasite or virus in culture; assay type: cell-based, Staphylococcus aureus; conditions: 37° C. for 20 hours, tested twice, first/second value where not matched
Procedure: as §4, §5

MRSA (clinical strain 2) = assay: microbe, parasite or virus in culture; assay type: cell-based, Staphylococcus aureus; conditions: 37° C. for 20 hours, tested twice, first/second value where not matched
Procedure: as §4, §5

[5] = test system: Pseudomonas aeruginosa (clinical strain 9); assay: MIC measurement, broth microdilution; assay type: cell-based; conditions: Pseudomonas aeruginosa; 37° C. for 20 hours; tested twice, first/second value where not matched
[6] = test system: Klebsiella pneumoniae JCM 1662; assay: Antibacterial activity, ATP assay (BacTiter-Glo); assay type: cell-based
Procedure: as §1, §2, §3

[7] = test system: Escherichia coli ATCC 25922; assay: Antibacterial activity, ATP assay (BacTiter-Glo); assay type: cell-based
Procedure: as §1, §2, §3

[8] = test system: Enterobacter cloacae JCM 1232; assay: Antibacterial activity, ATP assay (BacTiter-Glo); assay type: cell-based
Procedure: as §1, §2, §3

MRSA (clinical strain 1) = assay: microbe, parasite or virus in culture; assay type: cell-based; conditions: Staphylococcus aureus, 37° C. for 20 hours, tested twice, first/second value where not matched
Procedure: as §4, §5

[9] = test system: Staphylococcus aureus ATCC29213; assay: Antibacterial activity, ATP assay (BacTiter-Glo); assay type: cell-based
Procedure: (§6) The antibacterial activity of the polypeptides was measured using an ATP assay method. Using BacTiter-Glo Microbial Cell Viability Assay kit available from PROMEGA, the antibacterial activity of the peptides was evaluated from the viability of bacteria. […] With respect to the strains, Staphylococcus aureus ATCC29213 (S. aureus ATCC29213) as Gram-positive bacteria, or, alternatively, Pseudomonas aeruginosa (P. aeruginosa ATCC27853) as Gram-negative bacteria, was used. The bacteria were cultured in media for 3 to 4 hours, and thereafter absorbances at A600 were measured. Bacterial suspensions were diluted with Mueller-Hinton broth (MHB) according to McFarland #0.5. […] A solution to which the peptides were not added was considered as a negative control, and a solution to which tobramycin (TOB) was added was considered as a positive control. The plate was incubated at 37° C. for 3 hours, and the amount of ATP in the culture media was measured. Relative values were calculated by comparison with the negative control, and these values were regarded as the viability. The antibacterial activity of each of SR-08 and SR-07 polypeptides was measured using an ATP assay method. That is, using BacTiter-Glo Microbial Cell Viability Assay kit available from PROMEGA, the antibacterial activity of the peptides was evaluated from the viability of bacteria. […] As controls, tobramycin (TOB), oxacillin (OX) and meropenem (MEPM) were used at the concentrations as respectively shown in Table 6 below. With respect to the strains, Escherichia coli: ATCC 25922 (Escherichia coli ATCC 25922), Pseudomonas aeruginosa: ATCC 27853 (Pseudomonas aeruginosa ATCC 27853), Staphylococcus aureus: ATCC29213 (Staphylococcus aureus ATCC29213), Klebsiella pneumoniae: JCM 1662 (Klebsiella pneumoniae JCM 1662), enterobacteria (1): […] JCM 1235 (Enterobacter aerogenes JCM 1235), were used. The bacteria were cultured in media for 3 to 4 hours, and thereafter absorbances at A600 were measured. Bacterial suspensions were diluted with Mueller-Hinton broth (MHB) according to McFarland #0.5. […] The plate was incubated at 37° C. for 3 hours, and the amount of ATP in the culture media was measured. Relative values were calculated by comparison with the negative control, and these values were regarded as the viability.

[10] = test system: Pseudomonas aeruginosa ATCC 27853; assay: Antibacterial activity, ATP assay (BacTiter-Glo); assay type: cell-based
Procedure: as §6

[11] = test system: Pseudomonas aeruginosa (clinical strain 8); assay: MIC measurement, broth microdilution; assay type: cell-based; conditions: Pseudomonas aeruginosa; 37° C. for 20 hours; tested twice, first/second value where not matched
[12] = test system: Staphylococcus epidermidis; assay: MIC measurement, broth microdilution; assay type: cell-based; conditions: Staphylococcus epidermidis; 37° C. for 20 hours; tested twice, first/second value where not matched
Procedure: as §4, §5

[13] = test system: Pseudomonas aeruginosa (clinical strain 1); assay: microbe, parasite or virus in culture; assay type: cell-based; conditions: Pseudomonas aeruginosa; 37° C. for 20 hours; tested twice, first/second value where not matched
[14] = Table 7, mean values, peptides 10 μg/mL, TOB 4.0, OX 4.0, MEPM 0.5 μg/mL, 37° C. 3 hours, relative to negative control
[15] = Table 7, mean values, peptides 10 μg/mL, TOB 1.0, OX 1.0, MEPM 0.5 μg/mL, 37° C. 3 hours, relative to negative control
[16] = Table 5, peptides 10 μg/mL, 37° C. for 3 hours, ATP amount relative to negative control

## ARLDVASEFRKKWNKWALSR-amide (ARLDVASEFRKKWNKWALSR-NH2; listed as Homo sapiens) [PAMP]
[1]; Table 4
  The Length of Lumina (Percentage when taking Control as 100): 124.6%

## MLKLIFLHRLKRMRKRLKRK [SR-1]
[1]; Table 3
  The Length of Lumina (Percentage when taking Control as 100): 124.3%

## NC[C@H]1O[C@H](O[C@H]2[C@H](O)[C@@H](O[C@H]3O[C@H](CO)[C@@H](O)[C@H](N)[C@H]3O)[C@H](N)C[C@@H]2N)[C@H](N)C[C@@H]1O [TOB, tobramycin]
[2]
  MIC: < 4 µg/mL
[3]; [14]
  Viability, Enterobacteria (2): 0.7
[4]
  MIC: < 4 µg/mL
MSSA (clinical strain 1)
  MIC: < 4 µg/mL
MSSA (clinical strain 2); Staphylococcus aureus, MSSA
  MIC: < 4 µg/mL
MRSA (clinical strain 2); Staphylococcus aureus, MRSA
  MIC: > 16 µg/mL
[5]
  MIC: < 4 µg/mL
[6]; [14]
  Viability, Klebsiella pneumoniae: 4.6
[7]; [15]
  Viability, Escherichia coli: 4.1
[8]; [14]
  Viability, Enterobacteria (1): 2.9
MRSA (clinical strain 1)
  MIC: > 16 µg/mL
[9]; [16]
  Viability (%) Staphylococcus aureus: 3.5%
[9]; Table 7, mean values, peptides 10 μg/mL, TOB 1.0, OX 0.125, MEPM 0.5 μg/mL, 37° C. 3 hours, relative to negative control
  Viability, Staphylococcus aureus: 3.4
[10]; [16]
  Viability (%) Pseudomonas aeruginosa: 1.8%
[10]; [15]
  Viability, Pseudomonas aeruginosa: 1.5
[11]
  MIC: < 4 µg/mL
[12]
  MIC: 0.12 to 1 µg/mL (≈ 0.257 to 2.14 µM)
[13]
  MIC: > 16 µg/mL

## ELRFLHRLKRRLRKRLKRKLR-NH2 [SR-2]
[1]; Table 3
  The Length of Lumina (Percentage when taking Control as 100): 124.6%

## MLKLIFLHRLKRMRKRLKRKLRFWHRKRYK [AG30-5C]
[1]; Table 3
  The Length of Lumina (Percentage when taking Control as 100): 119.1%
[1]; Table 4
  The Length of Lumina (Percentage when taking Control as 100): 165.7%

## C[C@@H](O)[C@H]1C(=O)N2C(C(=O)O)=C(S[C@@H]3CN[C@H](C(=O)N(C)C)C3)[C@H](C)[C@H]12 [MEPM, meropenem]
[2]
  MIC: 8 µg/mL (≈ 20.9 µM)
[3]; Klebsiella aerogenes, JCM1235, 3 h, read-out: Viability, Enterobacteria (2)
  viability at 0.5 µg/mL: 1.7%
[4]
  MIC: < 4 µg/mL
MSSA (clinical strain 1)
  MIC: < 4 µg/mL
MSSA (clinical strain 2)
  MIC, MSSA (clinical strain 2): 4/8
MRSA (clinical strain 2)
  MIC, MRSA (clinical strain 2): 8/16
[5]
  MIC: < 4 µg/mL
[6]; Klebsiella pneumoniae, JCM1662, 3 h, read-out: Viability, Klebsiella pneumoniae
  viability at 0.5 µg/mL: 9.2%
[7]; Escherichia coli, ATCC25922, 3 h, read-out: Viability, Escherichia coli
  viability at 0.5 µg/mL: 12.4%
[8]; Enterobacter cloacae, JCM1232, 3 h, read-out: Viability, Enterobacteria (1)
  viability at 0.5 µg/mL: 3.8%
MRSA (clinical strain 1)
  MIC: < 4 µg/mL
[9]; Staphylococcus aureus, ATCC29213, 3 h, read-out: Viability, Staphylococcus aureus
  viability at 0.5 µg/mL: 89.8%
[10]; Pseudomonas aeruginosa, ATCC27853, 3 h, read-out: Viability, Pseudomonas aeruginosa
  viability at 0.5 µg/mL: 19.3%
[11]
  MIC: < 4 µg/mL
[12]
  MIC: 0.03 to 0.12 µg/mL (≈ 0.0782 to 0.313 µM)
[13]
  MIC: < 4 µg/mL

Source: US9695219B2, “Polypeptide having antibacterial activity and angiogenesis-inducing activity and wound-healing drug containing said polypeptide” (priority 2009, dated 2017)
